Columns and labels:
[1] = Test E: Determination of Thrombin Time ex vivo (plasma concentration of thrombin inhibitor after oral or parenteral administration); assay type: in vivo, rat; settings: conscious rats
Description: Determination of Thrombin Time ex vivo
The inhibition of thrombin after oral or parenteral administration of the compounds of the invention, dissolved in ethanol:Solutol™:water (5:5:90), is examined in conscious rats which, one or two days prior to the experiment, are equipped with a catheter for blood sampling from the carotid artery. On the experimental day blood samples are withdrawn at fixed times after the administration of the compound into plastic tubes containing 1 part sodium citrate solution (0.13 mol per L) and 9 parts of blood. The tubes are centrifuged to obtain platelet poor plasma.
50 μL of plasma samples are precipitated with 100 μL of cold acetonitrile. The samples are centrifuged for 10 minutes at 4000 rpm. 75 μL of the supernatant is diluted with 75 μL of 0.2% formic acid. 10 μL volumes of the resulting solutions are analysed by LC-MS/MS and the concentrations of thrombin inhibitor are determined using standard curves.

[2] = Test G: Determination of in vitro Stability, human liver microsomes; assay type: in vitro ADME; settings: liver microsomes from humans, 37° C., up to 60 minutes
Protocol: (§1) Determination of in vitro Stability
(§2) Liver microsomes were prepared from Sprague-Dawley rats and human liver samples according to internal SOPs. The compounds were incubated at 37° C. at a total microsome protein concentration of 3 mg/mL in a 0.05 mol/L TRIS buffer at pH 7.4, in the presence of the cofactors NADH (2.5 mmol/L) and NADPH (0.8 mmol/L). The initial concentration of compound was 5 or 10 μmol/L. Samples were taken for analysis up to 60 minutes after the start of the incubation. The enzymatic activity in the collected sample was immediately stopped by adding 20% […] at a volume corresponding to 3.3% of the total sample volume. The concentration of compound remaining (FINAL CONC) in the 60 min. sample was determined by means of LCMS using a sample collected at zero time as reference (START CONC). The % of degraded thrombin inhibitor was calculated as: [formula]

[3] = Test G: Determination of in vitro Stability, rat liver microsomes; assay type: in vitro ADME, Sprague-Dawley rats; settings: liver microsomes from rats, 37° C., up to 60 minutes
Protocol: as §1, §2

| Structure (SMILES) | oral and/or parenteral bioavailability as the corresponding active inhibitor (free amidine) [1] | conversion to the corresponding active inhibitor (free amidine) [2] | conversion to the corresponding active inhibitor (free amidine) [3] |
| --- | --- | --- | --- |
| CC(=O)Nc1cc(Cl)cc([C@@H](O)C(=O)N2CC[C@H]2C(=O)NCc2ccc(C(N)=NOC(C)C)cc2)c1 [Example 6, Ph(3-Cl)(5-NHAc)-(R)CH(OH)C(O)-(S)Aze-Pab(OiPr)] | exhibit oral and/or parenteral bioavailability in the rat as the corresponding active inhibitor (free amidine) | – | – |
| CNc1cc(Cl)cc([C@@H](O)C(=O)N2CC[C@H]2C(=O)NCc2ccc(C(N)=NOC)cc2)c1 [Example 3, Ph(3-Cl)(5-NHMe)-(R)CH(OH)C(O)-(S)Aze-Pab(OMe)] | exhibit oral and/or parenteral bioavailability in the rat as the corresponding active inhibitor (free amidine) | converted to the corresponding active inhibitor (free amidine) | converted to the corresponding active inhibitor (free amidine) |
